Measured values: US11771086B2, “Pest control composition including novel iminopyridine derivative” (priority 2012, dated 2023)

How the values were obtained:
Format in all cases: in vivo
Plutella xylostella = test: Reference Test Example 1 Pest control test of Plutella xylostella (foliar treatment, single agent); design: Plutella xylostella (Reference Test Example 1), mortality of larvae: concentration or dose not given beside the values; details: foliar treatment, single agent
Excerpt: After an air drying process, second instar larvae were released thereto. […] Test in duplicate.

Laodelphax striatella = test: Reference Test Example 18 Pest control test of Laodelphax striatella (wheat seedling root treatment); details: wheat seedling roots treated; four days after release; 20 μg/seedling
Method: The drug was absorbed from the roots for 72 hours, and then ten second instar larvae of Laodelphax striatella were each released thereto. […] The test was performed in duplicate.

Aphis gossypii = test: Reference Test Example 3 Pest control test of Aphis gossypii (foliar treatment, single agent); design: Aphis gossypii (Reference Test Example 3), mortality of larvae: concentration or dose not given beside the values; details: foliar treatment, single agent

| Compound | Plutella xylostella (Reference Test Example 1), mortality of larvae (Plutella xylostella) | Laodelphax striatella (Reference Test Example 18), mortality of larvae (Laodelphax striatella) | Aphis gossypii (Reference Test Example 3), mortality of larvae (Aphis gossypii) |
| --- | --- | --- | --- |
| FC(F)C(=S)N=c1ccccn1Cc1ccc(Cl)nc1 [Compound 1-21] | 80% | 100% | 100% |
| FC(F)(Cl)C(=S)N=c1ccccn1Cc1ccc(Cl)nc1 [Compound 1-22] | 100% | 100% | – |
| FC(F)(F)C(F)(F)C(=S)N=c1ccccn1Cc1ccc(Cl)nc1 [Compound 1-23] | 100% | 100% | – |
| C/N=C(/N=c1\ccccn1Cc1ccc(Cl)nc1)C(F)(F)F [Compound 1-42, N-[1-((6-chloropyridin-3-yl)methyl)pyridin-2(1H)-ylidene]-2,2,2-trifluoro-N′-methylacetimidamide] | 100% | 100% | 100% |
| CSCCN=C(N=c1ccccn1Cc1ccc(Cl)nc1)C(F)(F)F [Compound 1-150] | 100% | 80% | 100% |
| O=C(/N=c1\ccccn1Cc1ccc(F)nc1)C(F)F [Compound 3-3, 2,2-difluoro-N-[1-((6-fluoropyridin-3-yl)methyl)pyridin-2(1H)-ylidene]acetamide] | 50% | 80% | 100% |
| O=C(N=c1ccccn1Cc1ccc(F)nc1)C(F)(F)Cl [Compound 3-4] | 100% | 100% | 100% |
| O=C(N=c1ccccn1Cc1ccc(F)nc1)C(F)(F)C(F)(F)F [Compound 3-5] | 100% | 80% | 55% |
| Fc1ccc(Cn2ccccc2=NC(=S)C(F)(F)F)cn1 [Compound 3-20] | 55% | 80% | 100% |
| O=C(N=c1ccccn1Cc1ccc(Br)nc1)C(F)F [Compound 4-3] | 100% | 100% | – |
| O=C(N=c1ccccn1Cc1ccc(Br)nc1)C(F)(F)Cl [Compound 4-4] | 100% | 100% | – |
| O=C(N=c1ccccn1Cc1ccc(Br)nc1)C(F)(F)C(F)(F)F [Compound 4-5] | 100% | 100% | 100% |
| FC(F)(F)C(=S)N=c1ccccn1Cc1ccc(Br)nc1 [Compound 4-20] | 100% | 100% | 100% |
| O=C(N=c1ccccn1Cc1cnc(Cl)c(F)c1)C(F)F [Compound 5-3] | 100% | 100% | – |
| O=C(N=c1ccccn1Cc1cnc(Cl)c(F)c1)C(F)(F)Cl [Compound 5-4] | 100% | 100% | – |
| Fc1cc(Cn2ccccc2=NC(=S)C(F)(F)F)cnc1Cl [Compound 5-20] | 100% | 100% | – |
| O=C(N=c1ccccn1Cc1cnc(Cl)nc1)C(F)F [Compound 6-3] | 80% | 100% | – |
| O=C(N=c1ccccn1Cc1cnc(Cl)nc1)C(F)(F)Cl [Compound 6-4] | 90% | 100% | 100% |
| N#Cc1cccn(Cc2ccc(Cl)nc2)c1=NC(=O)C(F)(F)F [Compound 102-2] | 10% | 100% | 100% |
| O=C(N=c1ccccn1Cc1ccc(Cl)nc1)C(F)(F)F [Compound P-212] | 100% | 100% | 100% |
| O=C(N=c1ccccn1Cc1cnc(Cl)s1)C(F)(F)F [Compound P-213] | 100% | 100% | 100% |
| O=C(N=c1ccc(Cl)cn1Cc1ccc(Cl)nc1)C(F)(F)F [Compound P-215] | 100% | 75% | 80% |
| O=C(N=c1ccc(F)cn1Cc1ccc(Cl)nc1)C(F)(F)F [Compound P-216] | 100% | 100% | 95% |

| Compound | Plutella xylostella (Reference Test Example 1), mortality of larvae (Plutella xylostella) | Laodelphax striatella (Reference Test Example 18), mortality of larvae (Laodelphax striatella) | Aphis gossypii (Reference Test Example 3), mortality of larvae (Aphis gossypii) |
| --- | --- | --- | --- |
| O=C(N=c1ccc(Cl)cn1Cc1cnc(Cl)s1)C(F)(F)F [Compound P-218] | 100% | – | 60% |
| O=C(N=c1ccc(F)cn1Cc1cnc(Cl)s1)C(F)(F)F [Compound P-219] | 80% | – | 85% |
| Cc1ccn(Cc2ccc(Cl)nc2)c(=NC(=O)C(F)(F)F)c1 [Compound P-222] | – | 100% | 100% |
| Cc1ccc(=NC(=O)C(F)(F)F)n(Cc2ccc(Cl)nc2)c1 [Compound P-223] | – | 75% | 75% |
| O=C(N=c1ccccn1Cc1ccc(Cl)cc1)C(F)(F)F [Compound P-225] | – | – | 90% |
| O=C(N=c1ccccn1Cc1cccnc1)C(F)(F)F [Compound P-226] | 60% | – | 100% |
| O=C(N=c1ccccn1Cc1cnc(Cl)c(F)c1)C(F)(F)F [Compound P-227] | 100% | 100% | 100% |
| O=C(N=c1ccccn1Cc1ccc(C(F)(F)F)nc1)C(F)(F)F [Compound P-228] | 30% | 100% | 95% |
| O=C(N=c1ccccn1Cc1ccc(F)nc1)C(F)(F)F [Compound P-229] | 100% | 100% | 100% |
| O=C(N=c1ccccn1Cc1cnc(Cl)c(Cl)c1)C(F)(F)F [Compound P-230] | 100% | – | 100% |
| O=C(N=c1ccccn1Cc1ccc(Br)nc1)C(F)(F)F [Compound P-231] | 100% | 100% | 100% |
| O=C(N=c1cc(F)ccn1Cc1ccc(Cl)nc1)C(F)(F)F [Compound P-232] | – | – | 80% |
| O=C(N=c1c(F)cccn1Cc1ccc(Cl)nc1)C(F)(F)F [Compound P-233] | – | 75% | 100% |
| O=C(N=c1ccccn1Cc1ccc(Cl)nc1)C(Cl)Cl [Compound P-234] | 100% | 100% | 100% |
| O=C(N=c1ccccn1Cc1ccc(Cl)nc1)C(Cl)(Cl)Cl [Compound P-235] | 100% | 75% | 95% |
| O=C(CCl)N=c1ccccn1Cc1ccc(Cl)nc1 [Compound P-236] | – | – | 100% |
| O=C(N=c1ccccn1Cc1ccc(Cl)nc1)C(F)F [Compound P-238] | 100% | 100% | 100% |
| O=C(N=c1ccccn1Cc1ccc(Cl)nc1)C(F)(F)Cl [Compound P-239] | 100% | 100% | 100% |
| O=C(N=c1ccccn1Cc1ccc(Cl)nc1)C(Cl)Br (stereo not drawn) [Compound P-240] | – | 100% | 100% |
| O=C(N=c1ccccn1Cc1ccc(Cl)nc1)C(Br)Br [Compound P-241] | – | 100% | 100% |
| O=C(N=c1ccccn1Cc1ccc(Cl)nc1)C(F)(F)C(F)(F)F [Compound P-242] | 100% | 100% | 100% |
| O=C(CBr)N=c1ccccn1Cc1ccc(Cl)nc1 [Compound P-244] | – | 100% | 100% |
